In patent publication US5808049A, “Stereospecific 5-fu esters and methods for preparing same” (Director-General of Agency of Industrial Science and …, priority 1994, dated 1998):

What was measured:
in vitro [1] = details: rat, anr4 cells, pH 7.5
Protocol: (§1) Each of the reaction mixtures was prepared by dissolving 1 mg of the ester in 10 μl of ethanol, and by mixing with it, 90 μl of a 0.1M phosphoric acid buffer (having a pH of 7.5), plus one of the following: 100 μl of a cell suspension, or 20 or 30 μl of whole blood, or 50 μl of tissue homogenate. […] The cells numbers in 100 μl of the cell suspension used in the reaction were as follows: rat liver cancer cells Anr4=7×10^6 ; rat pancreas cancer cells ARIP=8×10^6 ; rat sarcoma cells XC=5×10^6 ; human histiocytic leukemia cells U937=1×10^7 ; human pancreas cancer cells MIA PaCa-2=8×10^6 ; and human intestinum crassum cancer cells Colo 320=1×10^7. Fifty μl of the tissue homogenate corresponded to 20 mg of wet tissue.
(§2) Each of these reaction mixtures was stirred for 12 hours at 30° C. by a magnetic stirrer; then 1.5 μl of 2N HCl was added, to bring the pH to about 2.5, and extraction with 1 ml of ethyl acetate in the presence of a saturated sodium chloride was carried out twice. The ethyl acetate layers of each sample were combined, the volume was adjusted to precisely 2 ml, and it was divided into 1.7 ml and 0.3 ml. The former was concentrated under reduced pressure, and the contained produced carboxylic acid was isolated by thin-layer preparative chromatography. A solution of diazomethane in ether was added to it, to methylate it, and the absolute configuration and the optical purity of the methylated product were determined by high-performance liquid chromatography using a chiral column. The latter 0.3 ml was directly methylated, and then it was concentrated and adjusted to 0.3 ml again, and the methyl ester of the contained produced carboxylic acid was determined quantitatively by gas chromatography, from which the hydrolyzed rate was determined. The column used in the high-performance liquid chromatography was a Chiralcell OJ or OD column (trade name; 4.6×250 mm) manufactured by Daicel; the elution was carried out by using a 10% 2-propanol/hexane mixture; and the flow velocity was 1 or 0.75 ml/min. The column used in the gas chromatography was a capillary column of OV-1 (0.25 mm×25 m), and the analysis temperature was 120° to 180° C.

in vitro [2] = details: rat, arip cells, pH 7.5
Protocol: as §1, §2

in vitro [3] = details: rat, xc cells, pH 7.5
Protocol: as §1, §2

in vitro [4] = details: rat, blood, pH 7.5
Protocol: as §1, §2

[5] = Stereoselective hydrolysis of anticancer agent esters with rat whole blood; details: pH 7.5; for enantiomer excess of the carboxylic acid produced by the hydrolysis: rat whole blood, 12 hours at 30° C.
Protocol: as §1, §2

rat sarcoma cells XC = assay: Stereoselective hydrolysis of anticancer agent esters with rat sarcoma cells XC; details: XC; 12 hours at 30° C., pH 7.5
Protocol: as §1, §2

[6] = system: rat liver cancer cells Anr4; assay: Stereoselective hydrolysis of anticancer agent esters with rat liver cancer cells Anr4; details: Anr4; 12 hours at 30° C., pH 7.5
Protocol: as §1, §2

[7] = Stereoselective hydrolysis of anticancer agent esters with normal rat liver homogenate; details: 12 hours at 30° C., pH 7.5
[8] = Stereoselective hydrolysis of anticancer agent esters with normal rat muscle homogenate; details: 12 hours at 30° C., pH 7.5
[9] = system: rat pancreas cancer cells ARIP; assay: Stereoselective hydrolysis of anticancer agent esters with rat pancreas cancer cells ARIP; details: ARIP; 12 hours at 30° C., pH 7.5
Protocol: as §1, §2

[10] = Stereoselective hydrolysis of anticancer agent esters with normal rat pancreas homogenate; details: 12 hours at 30° C., pH 7.5
Protocol: as §1, §2

[11] = system: rat liver cancer cells Anr4; assay: Anticancer effect (suppression of multiplication) on rat liver cancer cells Anr4; type: cell-based; details: for multiplication of Anr4 cells suppressed to % of the control: same way as in Example 2 (Example 3); for multiplication of Anr4 cells suppressed to % of the control / number of cells, % for the value of the control: 2880 min; for suppression of multiplication of Anr4 cells, comparison of enantiomers: Ib: at 1 μM to 0.1 μM, Ic: at 10 μM; for number of cells, % for the value of the control: 6 hours exposure, then 42 hours in fresh medium
Protocol: The anticancer effect of levo-rotatory or dextro-rotatory 4-bis(2-chloroethyl)aminophenyl 2-methoxy-2-phenylacetate (Ib) on rat liver cancer cells Anr4 was tested. Anr4 cells were suspended, in an amount of cells number of 1×10^6 per 1 ml, in William's E medium containing 10% of fetal bovine serum, and 0.1 ml of the suspension was distributed to each well of a 24-well multiplate. Further, 1.385 ml of the above medium was added to each well. They were cultured for 4 hours at 37° C. in a CO2 incubator, and then 15 μl of pure ethanol or an ethanol solution containing (R)-(-)-Ib or (S)-(+)-Ib obtained in Synthetic. Example 4, having a concentration of 10 mM, 1 mM, 0.1 mM, 0.01 mM, or 0.001 mM, was added to the medium in each well, and they were mixed well.
After they were cultured for 6 hours in the above incubator, the medium was removed by suction, and 1.5 ml of fresh medium was added. After culturing was continued for 42 hours, the number of cells in each well was counted by a Coulter counter. The results, in terms of % for the value of the control (the well added pure ethanol), were 9%, 12%, 16%, 55%, and 95% for the concentrations of 100 μM, 10 μM, 1 μM, 0.1 μM, and 0.01 μM of (R)-(-)-Ib in the medium, respectively. For the concentrations of 100 μM, 10 μM, 1 μM, 0.1 μM, and 0.01 μM of (S)-(+)-Ib in the medium, the results were 9%, 18%, 30%, 83%, and 95%, respectively.
The anticancer effect of the optically active substances of Ic obtained in Synthetic Example 5 on Anr4 cells was tested in the same way as in Example 2. As a result, at 10 μM, (R)-(+)-Ic suppressed the multiplication of Anr4 cells to 14% of the control, and (S)-(-)-Ic suppressed the multiplication of Anr4 cells to 25% of the control.

[12] = Stereoselective hydrolysis of anticancer agent esters with rat sarcoma cells XC; details: rat, xc cells, pH 7.5
Protocol: as §1, §2

[13] = Stereoselective hydrolysis of anticancer agent esters with rat liver cancer cells Anr4; details: rat, anr4 cells, pH 7.5
Protocol: as §1, §2

[14] = Stereoselective hydrolysis of anticancer agent esters with rat pancreas cancer cells ARIP; details: rat, arip cells, pH 7.5
Protocol: as §1, §2

## COC(C(=O)Oc1ccc(N(CCCl)CCCl)cc1)c1ccccc1 (racemic) [Ib, (±)-4-bis(2-chloroethyl)aminophenyl 2-methoxy-2-phenylacetate]
In vitro [1]
  metabolised at 12 h: 14%
In vitro [2]
  metabolised at 12 h: 55.2%
In vitro [3]
  metabolised at 12 h: 23.9%
In vitro [4]
  metabolised at 12 h: 55.2%
[5]
  enantiomer excess of the carboxylic acid produced by the hydrolysis: 20.4 % e.e.
Rat sarcoma cells XC
  enantiomer excess of the carboxylic acid produced by the hydrolysis: 69.9 % e.e.
[6]
  enantiomer excess of the carboxylic acid produced by the hydrolysis: 91.3 % e.e.
[7]
  enantiomer excess of the carboxylic acid produced by the hydrolysis: 33.2 % e.e.
[8]
  enantiomer excess of the carboxylic acid produced by the hydrolysis: 46.0 % e.e.
[9]
  enantiomer excess of the carboxylic acid produced by the hydrolysis: 26.8 % e.e.
[10]
  enantiomer excess of the carboxylic acid produced by the hydrolysis: 8.4 % e.e.

## O=C(Oc1ccc(N(CCCl)CCCl)cc1)[C@@H](Cc1ccccc1)NC(=O)C(F)(F)F [(R)-(+)-Ic, 4-bis(2-chloroethyl)aminophenyl 2-trifluoroacetamido-3-phenylpropionate]
[11]; 10 μM
  multiplication of Anr4 cells suppressed to % of the control: 14%
[11]
  suppression of multiplication of Anr4 cells, comparison of enantiomers: stronger cell multiplication-suppressing effect than (S)-(-)-Ic

## CO[C@@H](C(=O)Oc1ccc(N(CCCl)CCCl)cc1)c1ccccc1 [(R)-(-)-Ib, 4-bis(2-chloroethyl)aminophenyl 2-methoxy-2-phenylacetate]
[11]; 0.01 μM
  number of cells, % for the value of the control: 95%
[11]; 0.1 μM
  number of cells, % for the value of the control: 55%
[11]; 1 μM
  number of cells, % for the value of the control: 16%
[11]; 10 μM
  number of cells, % for the value of the control: 12%
[11]; 100 μM
  number of cells, % for the value of the control: 9%
[11]
  suppression of multiplication of Anr4 cells, comparison of enantiomers: suppressed the multiplication of Anr4 cells more strongly than dextro-rotatory (S)-(+)-Ib did

## CO[C@H](C(=O)Oc1ccc(N(CCCl)CCCl)cc1)c1ccccc1 [(S)-(+)-Ib, 4-bis(2-chloroethyl)aminophenyl 2-methoxy-2-phenylacetate]
[11]; 0.01 μM
  number of cells, % for the value of the control: 95%
[11]; 0.1 μM
  number of cells, % for the value of the control: 83%
[11]; 1 μM
  number of cells, % for the value of the control: 30%
[11]; 10 μM
  number of cells, % for the value of the control: 18%
[11]; 100 μM
  number of cells, % for the value of the control: 9%

## O=C(Oc1ccc(N(CCCl)CCCl)cc1)[C@H](Cc1ccccc1)NC(=O)C(F)(F)F [(S)-(-)-Ic, 4-bis(2-chloroethyl)aminophenyl 2-trifluoroacetamido-3-phenylpropionate]
[11]; 10 μM
  multiplication of Anr4 cells suppressed to % of the control: 25%

## COC(C(=O)OC[C@H]1O[C@@H](n2cc(F)c(=O)[nH]c2=O)[C@H](O)[C@@H]1O)c1ccccc1 (stereo partly drawn) [IIb, 5'-(RS)-(2-methoxy-2-phenylacetyl)-5-fluorouridine]
[5]
  enantiomer excess of the carboxylic acid produced by the hydrolysis: 55.0 % e.e.
[5]; rat, whole blood
  metabolised at 12 h: 14.8%
[12]
  metabolised at 12 h: 23%
Rat sarcoma cells XC
  enantiomer excess of the carboxylic acid produced by the hydrolysis: 81.5 % e.e.
[13]
  metabolised at 12 h: 23.7%
[6]
  enantiomer excess of the carboxylic acid produced by the hydrolysis: 81.1 % e.e.
[7]
  enantiomer excess of the carboxylic acid produced by the hydrolysis: 6.0 % e.e.
[8]
  enantiomer excess of the carboxylic acid produced by the hydrolysis: 18.5 % e.e.
[14]
  metabolised at 12 h: 27.7%
[9]
  enantiomer excess of the carboxylic acid produced by the hydrolysis: 84.1 % e.e.
[10]
  enantiomer excess of the carboxylic acid produced by the hydrolysis: 42.5 % e.e.
